# Laboratory results published in patent US10391068B2 (priority 2012, dated 2019).
# Where “and” joins values, the source holds several entries; their conditions need not be identical. Equal entries are not always repeated. Entries after “also recorded” stand apart in the source; their conditions may differ. Where two headings read alike, the source gives them in different places.
# Experiments:
# recombinant C-PrP = recombinant C-PrP (Mus musculus, UniProt P04925); assay: biochemical; type: binding
# recombinant mouse PrP^C = recombinant mouse PrP^C (Mus musculus, UniProt P04925); assay: biochemical; type: binding
# human recombinant PrP^C = human recombinant PrP^C (Homo sapiens, UniProt P04156); assay: biochemical; type: binding
# N-PrP (23-111) [1] = target: T1, N-PrP (23-111) (Mus musculus, UniProt P04925); type: binding
# C-PrP (120-230) = C-PrP (120-230) (Mus musculus, UniProt P04925); type: binding
# BSA = BSA (Bos taurus, UniProt P02769); type: binding
# [2] = target: Recombinant C-PrP (residues 120-230) (Mus musculus, UniProt P04925); type: binding
# myoglobin = myoglobin (Equus caballus, UniProt P68082); type: binding
# moPrP (23-230) [3] = target: T2, moPrP (23-230) (Mus musculus, UniProt P04925); type: biochemical
# PrP^23-230 = PrP^23-230 (Mus musculus, UniProt P04925); type: binding
# [4] = target: Aβ oligomers binding to PrP^C (Mus musculus, UniProt P04925); assay: biochemical
# [5] = target: Aβ oligomers binding to PrP^C (Homo sapiens, UniProt P04156)
# [6] = type: binding; details: read-out: KD (did not bind detectably)
# [7] = target: T3, N-PrP / C-PrP interaction (Mus musculus, UniProt P04925); type: binding
# [8] = target: Aβ oligomers binding to N-PrP (Mus musculus, UniProt P04925)
# bovine serum albumin = bovine serum albumin (Bos taurus, UniProt P02769); assay: biochemical
# [9] = tested on: Aβ oligomer inhibition of LTP in hippocampal slices; type: cell-based, mice
# [10] = target: T3, N-PrP / C-PrP interaction; type: biochemical
# [11] = tested on: postnatal mouse hippocampal neurons treated with Aβ oligomers; type: cell-based
# N-PrP (23-111) [12] = target: T1, N-PrP (23-111); type: biochemical
# moPrP (23-230) [13] = target: T2, moPrP (23-230)
# [14] = tested on: Aβ oligomer binding to PrP-expressing HEK cells; type: cell-based
# moPrP (23-230) [15] = type: binding, mouse
# Sequence of bovine serum albumin (P02769 25-607): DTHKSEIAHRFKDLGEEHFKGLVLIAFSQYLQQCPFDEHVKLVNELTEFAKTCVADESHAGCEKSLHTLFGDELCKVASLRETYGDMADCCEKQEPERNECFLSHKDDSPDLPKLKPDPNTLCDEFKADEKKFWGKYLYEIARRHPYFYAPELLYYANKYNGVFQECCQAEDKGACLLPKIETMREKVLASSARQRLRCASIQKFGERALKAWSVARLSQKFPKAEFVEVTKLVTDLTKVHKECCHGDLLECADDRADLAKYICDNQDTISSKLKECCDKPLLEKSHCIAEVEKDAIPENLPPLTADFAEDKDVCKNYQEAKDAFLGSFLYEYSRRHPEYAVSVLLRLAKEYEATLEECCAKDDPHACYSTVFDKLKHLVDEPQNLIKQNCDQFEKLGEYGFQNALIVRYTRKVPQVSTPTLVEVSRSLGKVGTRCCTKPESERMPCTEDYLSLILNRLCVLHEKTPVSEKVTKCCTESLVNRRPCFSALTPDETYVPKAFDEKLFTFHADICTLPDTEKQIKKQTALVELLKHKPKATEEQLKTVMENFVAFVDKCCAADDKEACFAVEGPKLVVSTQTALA
# Sequence of myoglobin (P68082 2-154): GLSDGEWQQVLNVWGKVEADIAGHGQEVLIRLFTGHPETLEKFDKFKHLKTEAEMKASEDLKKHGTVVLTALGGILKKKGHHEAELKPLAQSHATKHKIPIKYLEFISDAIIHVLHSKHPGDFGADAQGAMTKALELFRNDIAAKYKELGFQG
compound,measurement,setting,value
"OC[C@@H](O)[C@H](O)[C@@H](O)c1nnn[nH]1 [DS40, (1S,2R,3R)-1-(1H-tetrazol-5-yl)butane-1,2,3,4-tetrol]",competition with / displacement of DS104 (in words),recombinant C-PrP,able to displace DS104; also recorded: competed with DS104
same,binding to PrP^C by SPR (in words),recombinant mouse PrP^C,lower affinity; also recorded: bind to PrP^C
same,rate of dissociation (Koff) from PrP^C (in words),recombinant mouse PrP^C,particularly slow rate of dissociation
same,Kd,human recombinant PrP^C,0.801 µM
same,binding to human versus mouse PrP^C (in words),human recombinant PrP^C,identical affinity
same,binding to N-PrP (in words),N-PrP (23-111) [1],failed to bind
same,binding to C-PrP (in words),C-PrP (120-230),bound
O[C@@H]1[C@H](O)[C@H](O)/C(=N\NC(=S)NCc2ccc(F)cc2)[C@H](O)[C@H]1O [DS211],Kd,recombinant mouse PrP^C,62.3 µM
same,binding to PrP^C by SPR (in words),recombinant mouse PrP^C,bind to PrP^C
"O=C(O)c1cc(NC(=S)NN=C2C(O)C(O)C(O)C(O)C2O)ccc1-c1c2ccc(=O)cc-2oc2cc(O)ccc12 [DS104, (Z)—N-(3′,6′-dihydroxy-3-oxo-3H-spiro[isobenzofuran-1,9′-xanthen]-5-yl)-2-((2R,3R,4S,5R,6S)-2,3,4,5,6-pentahydroxycyclohexylidene)hydrazinecarbothioamide]",binding to BSA by FP,BSA,not detected
same,Kd,[2],4 µM
same,binding to myoglobin by FP,myoglobin,not detected
"FC(F)(F)c1cccc(COn2c(-c3ccccc3)nc3ncccc32)c1 [DS15, reference compound]",Trp fluorescence of full-length PrP (in words),moPrP (23-230) [3],did not produce any change in Trp fluorescence; also recorded: did not alter the trp fluorescence
same,binding to PrP^C by EqD (in words),PrP^23-230,No binding was observed
"2R,3S,4S,5S,6R)-2-(hydroxymethyl)-6-[β-hydroxyphenyl)amino]tetrahydro-2H-pyran-3,4,5-triol [DS5]",competition with / displacement of DS104 (in words),recombinant C-PrP,able to displace DS104; also recorded: competed with DS104
same,binding to PrP^C by SPR (in words),recombinant mouse PrP^C,lower affinity; also recorded: also bind to PrP^C
"O=C(CN1CCCC1)Nc1ccc(Cc2ccc(NC(=O)CN3CCCC3)cc2)cc1 [GN8, N,N′-(methylenedi-4,1-phenylene)bis[2-(1-pyrrolidinyl)acetamide], reference compound]",Kd,recombinant mouse PrP^C,> 1000 µM
same,binding to PrP^C by SPR (in words),recombinant mouse PrP^C,does not bind; also recorded: no detectable binding; also recorded: failed to bind; also recorded: failed to detect binding
same,inhibition of Aβ oligomer binding to PrP^C by SPR (in words),[4],does not bind PrPC in the SPR assay used for studying the binding of PrPC ligands to PrPC or inhibit binding of Aβ oligomers to PrP^C
same,binding to PrP^C by EqD (in words),PrP^23-230,No binding was observed; also recorded: failed to detect binding
CC(C)(C)NC(=S)N/N=C1\[C@@H](O)[C@@H](O)[C@@H](O)[C@H](O)[C@H]1O [DS210],Kd,recombinant mouse PrP^C,63.1 µM
same,binding to PrP^C by SPR (in words),recombinant mouse PrP^C,bind to PrP^C
COc1ccc(CCNC(=S)N/N=C2\[C@@H](O)[C@@H](O)[C@@H](O)[C@H](O)[C@H]2O)cc1OC [DS207],Kd,recombinant mouse PrP^C,64.8 µM
same,binding to PrP^C by SPR (in words),recombinant mouse PrP^C,bind to PrP^C
"NC(=S)NN=C1C(O)C(O)C(O)C(O)C1O [DS26, 2-(2R,3S,5R,6S-pentahydroxycyclohexylidene)hydrazinecarbothioamide]",release of Aβ oligomers pre-bound to PrP^C (in words),[5],unable to release Aβ that was already attached to PrP^C; also recorded: unable to dislodge Aβ oligomers
same,Kd,recombinant C-PrP,0.3 µM
same,competition with / displacement of DS104 (in words),recombinant C-PrP,able to displace DS104; also recorded: competed with DS104
same,Kd,[6],> 1000 µM
same,DS26 remained bound to PrP^C after washing,recombinant mouse PrP^C,70%
same,Kd,recombinant mouse PrP^C,0.571 µM
same,binding to PrP^C by SPR (in words),recombinant mouse PrP^C,sub-micromolar affinity; also recorded: higher affinity; also recorded: stereospecific; also recorded: bound; also recorded: binds; also recorded: bind to PrP^C
same,koff,recombinant mouse PrP^C,0.00014 s⁻¹
same,kon,recombinant mouse PrP^C,245 M⁻¹ s⁻¹
same,rate of dissociation (Koff) from PrP^C (in words),recombinant mouse PrP^C,particularly slow rate of dissociation; also recorded: remarkably slow dissociation kinetics
same,residence time,recombinant mouse PrP^C; read-out: half-life for the bound state,83 min
same,koff,recombinant mouse PrP^C; read-out: koff rate,0.00014 s⁻¹
same,kon,recombinant mouse PrP^C; read-out: kon rate,245 M⁻¹ s⁻¹
same,N-PrP binding to C-PrP by SPR (in words),[7],N-PrP interacted with C-PrP only after pre-injection of DS26; also recorded: N-PrP bound to C-PrP that had been pre-treated with DS26
same,inhibition of Aβ oligomer binding to N-PrP (in words),[8],failed to inhibit the binding of Aβ oligomers to N-PrP
same,Kd,human recombinant PrP^C,0.571 µM
same,binding to human versus mouse PrP^C (in words),human recombinant PrP^C,identical affinity
same,Kd,bovine serum albumin,> 1000 µM
same,binding to N-PrP (in words),N-PrP (23-111) [1],failed to bind
same,LTP after Aβ oligomer exposure (in words),[9],significantly reversed the inhibitory effect of Aβ oligomers on LTP; also recorded: significantly (*p<0.05) enhances LTP after Aβ exposure
same,LTP with compound alone (in words),[9],No change in LTP was detected
same,co-immunoprecipitation of C-PrP with N-PrP (in words),[10],Co-immunoprecipitation of the two PrP fragments occurred only after incubation with DS26; also recorded: C-PrP was immunoprecipitated with N-PrP only in the presence of DS26
same,PrP^Sc replication in vitro (in words),PrP^Sc replication,partially inhibits
same,Trp fluorescence of full-length PrP (in words),moPrP (23-230) [3],dose-dependent quenching; also recorded: quenched the trp fluorescence in a dose-dependent manner
same,IC50,[4],~15 µM
same,inhibition of Aβ oligomer binding to PrP^C by SPR (in words),[4],inhibited binding of Aβ oligomers to PrP^C in a dose-dependent fashion; also recorded: decreased the binding of Aβ oligomers to PrP^C in a dose-dependent manner; also recorded: prevents binding of Aβ oligomers
same,reduction of the Aβ oligomer-PrP^C interaction,[4],more than 90%
same,binding to PrP^C by EqD (in words),PrP^23-230,retained by PrP^C in the sample chamber
same,decrease in the concentration of compound in the assay chamber,PrP^23-230,75%
same,binding to C-PrP (in words),C-PrP (120-230),bound; also recorded: binds
same,levels of synaptic markers after Aβ oligomers (in words),[11],significantly rescued the levels of all the synaptic markers; also recorded: blocks the toxic effects of Aβ oligomers
same,levels of synaptic markers with compound alone (in words),[11],not significantly altered
same,Trp fluorescence of N-PrP (in words),N-PrP (23-111) [12],unaffected; also recorded: did not alter the trp fluorescence
same,far-UV CD spectrum of PrP^C (in words),moPrP (23-230) [13],did not detectably alter the CD spectrum of PrP^C; also recorded: does not affect the far-UV CD spectrum
same,estimated IC50 on cells (in words),[14],higher than the corresponding value observed by SPR and ELISA
same,inhibition of Aβ oligomer binding to PrP^C on cells (in words),[14],dose-dependent inhibition of Aβ binding; also recorded: inhibits binding of Aβ oligomers to PrP^C on cells
same,difference in Tm versus PrP^C alone,moPrP (23-230) [15],2.11 °C
same,melting temperature (Tm) of PrP in presence of compound,moPrP (23-230) [15],68.93±0.1 °C and 68.9 °C
"O=C1OC(C(O)C(O)CO)C(O)C1O (stereo not drawn) [DS86, 3R,4S-dihydroxy-5S-(1,2,3-trihydroxypropyl)dihydrofuran-2(3H)-one]",binding to PrP^C by SPR (in words),recombinant mouse PrP^C,lower affinity; also recorded: also bind to PrP^C
